Source: the NIST ThermoML archive (doi:10.1016/j.fluid.2015.04.021)

Assay: cn = amount concentration of the nth substance listed, in mol/dm3
Conditions: 101.3 kPa, Liquid; for viscosity: Falling or rolling sphere viscometry; for mass density: Vibrating tube method

NCCCC[C@H](N)C(=O)[O-].[K+] [potassium L-lysinate] + O
Conditions	mass density [kg/m3]	viscosity [mPa·s]
298.15 K, c1 = 0.2001	1010.5	1.003
298.15 K, c1 = 0.25	1017.5	1.008
298.15 K, c1 = 0.5	1028.2	1.29
298.15 K, c1 = 0.75	1043.2	1.348
298.15 K, c1 = 1.008	1056	1.575
298.15 K, c1 = 1.529	1084.8	2.286
298.15 K, c1 = 1.79	1111	3.236
298.15 K, c1 = 2	1121.6	3.564
298.15 K, c1 = 2.5	1141.9	5.406
298.15 K, c1 = 3	1151	8.407
303.15 K, c1 = 0.2001	1009	0.8978
303.15 K, c1 = 0.25	1016	0.9023
303.15 K, c1 = 0.5	1027.1	1.158
303.15 K, c1 = 0.75	1041.4	1.2
303.15 K, c1 = 1.008	1054.1	1.397
303.15 K, c1 = 1.529	1082.7	2.007
303.15 K, c1 = 1.79	1108.6	2.805
303.15 K, c1 = 2	1119.1	3.054
303.15 K, c1 = 2.5	1139.1	4.597
303.15 K, c1 = 3	1148.3	7.027
308.15 K, c1 = 0.2001	1007.3	0.8095
308.15 K, c1 = 0.25	1014.2	0.8125
308.15 K, c1 = 0.5	1025.2	1.045
308.15 K, c1 = 0.75	1039.5	1.075
308.15 K, c1 = 1.008	1052	1.247
308.15 K, c1 = 1.529	1080.4	1.774
308.15 K, c1 = 1.79	1106	2.454
308.15 K, c1 = 2	1116.5	2.676
308.15 K, c1 = 2.5	1136.4	3.95
308.15 K, c1 = 3	1145.5	5.946
313.15 K, c1 = 0.2001	1005.4	0.7344
313.15 K, c1 = 0.25	1012.3	0.7377
313.15 K, c1 = 0.5	1023.2	0.9512
313.15 K, c1 = 0.75	1037.3	0.9697
313.15 K, c1 = 1.008	1049.8	1.121
313.15 K, c1 = 1.529	1077.9	1.581
313.15 K, c1 = 1.79	1103.4	2.173
313.15 K, c1 = 2	1113.8	2.358
313.15 K, c1 = 2.5	1133.5	3.433
313.15 K, c1 = 3	1142.6	5.094
318.15 K, c1 = 0.2001	1003.3	0.6711
318.15 K, c1 = 0.25	1010.2	0.6737
318.15 K, c1 = 0.5	1021	0.866
318.15 K, c1 = 0.75	1035.1	0.8813
318.15 K, c1 = 1.008	1047.5	1.014
318.15 K, c1 = 1.529	1075.4	1.418
318.15 K, c1 = 1.79	1100.8	1.934
318.15 K, c1 = 2	1111	2.116
318.15 K, c1 = 2.5	1130.6	3.008
318.15 K, c1 = 3	1139.7	4.407
323.15 K, c1 = 0.2001	1001.1	0.6168
323.15 K, c1 = 0.25	1007.9	0.6185
323.15 K, c1 = 0.5	1018.6	0.796
323.15 K, c1 = 0.75	1032.7	0.804
323.15 K, c1 = 1.008	1045	0.9223
323.15 K, c1 = 1.529	1072.8	1.28
323.15 K, c1 = 1.79	1098.1	1.735
323.15 K, c1 = 2	1108.1	1.916
323.15 K, c1 = 2.5	1127.6	2.659
323.15 K, c1 = 3	1136.7	3.852
328.15 K, c1 = 0.2001	998.6	0.5697
328.15 K, c1 = 0.25	1005.4	0.5705
328.15 K, c1 = 0.5	1016.2	0.7351
328.15 K, c1 = 0.75	1030.1	0.7388
328.15 K, c1 = 1.008	1042.4	0.8431
328.15 K, c1 = 1.529	1070.1	1.162
328.15 K, c1 = 1.79	1095.2	1.566
328.15 K, c1 = 2	1105.2	1.757
328.15 K, c1 = 2.5	1124.6	2.368
328.15 K, c1 = 3	1133.7	3.394
333.15 K, c1 = 0.2001	995.6	0.5292
333.15 K, c1 = 0.25	1002.8	0.5294
333.15 K, c1 = 0.5	1013.7	0.6833
333.15 K, c1 = 0.75	1027.5	0.6798
333.15 K, c1 = 1.008	1039.7	0.7748
333.15 K, c1 = 1.529	1067.2	1.061
333.15 K, c1 = 1.79	1092.3	1.421
333.15 K, c1 = 2	1102.2	1.621
333.15 K, c1 = 2.5	1121.5	2.136
333.15 K, c1 = 3	1130.6	3.012
338.15 K, c1 = 0.2001	993.4	0.4937
338.15 K, c1 = 0.25	1002.8	0.4939
338.15 K, c1 = 0.5	1011	0.6409
338.15 K, c1 = 0.75	1024.7	0.629
338.15 K, c1 = 1.008	1036.9	0.7155
338.15 K, c1 = 1.529	1064.3	0.9729
338.15 K, c1 = 1.79	1089.3	1.296
338.15 K, c1 = 2	1099.1	1.501
338.15 K, c1 = 2.5	1118.3	1.927
338.15 K, c1 = 3	1127.5	2.693
343.15 K, c1 = 0.2001	990.6	0.4633
343.15 K, c1 = 0.25	997.3	0.463
343.15 K, c1 = 0.5	1008.1	0.6042
343.15 K, c1 = 0.75	1021.8	0.5855
343.15 K, c1 = 1.008	1033.9	0.6637
343.15 K, c1 = 1.529	1061.3	0.8961
343.15 K, c1 = 1.79	1086.3	1.188
343.15 K, c1 = 2	1096	1.435
343.15 K, c1 = 2.5	1115	1.748
343.15 K, c1 = 3	1124.3	2.423
348.15 K, c1 = 0.2001	987.7	0.4359
348.15 K, c1 = 0.25	994.3	0.4358
348.15 K, c1 = 0.5	1005.2	0.5715
348.15 K, c1 = 0.75	1018.7	0.5472
348.15 K, c1 = 1.008	1030.9	0.6181
348.15 K, c1 = 1.529	1058.2	0.8306
348.15 K, c1 = 1.79	1083.2	1.095
348.15 K, c1 = 2	1092.7	1.346
348.15 K, c1 = 2.5	1111.8	1.594
348.15 K, c1 = 3	1121.1	2.208
